ChEMBL document CHEMBL4330140, “Novel human adenosine receptor antagonists based on the 7-amino-thiazolo[5,4-d]pyrimidine scaffold. Structural investigations at the 2-, 5- and 7-positions to enhance affinity and tune selectivity” (Bioorg Med Chem Lett, 2019)

Columns and labels:
Adenosine receptor A2b = biological target: T1, Adenosine receptor A2b (Homo sapiens, UniProt P29275); test: Antagonist activity at human adenosine A2B receptor expressed in CHO cells assessed as inhibition of NECA-induced increase in cAMP accumulation preincubated for 10 mins followed by NECA addition by GloSensor cAMP assay; format: functional, cell-based
T1 sequence (P29275 whole entry): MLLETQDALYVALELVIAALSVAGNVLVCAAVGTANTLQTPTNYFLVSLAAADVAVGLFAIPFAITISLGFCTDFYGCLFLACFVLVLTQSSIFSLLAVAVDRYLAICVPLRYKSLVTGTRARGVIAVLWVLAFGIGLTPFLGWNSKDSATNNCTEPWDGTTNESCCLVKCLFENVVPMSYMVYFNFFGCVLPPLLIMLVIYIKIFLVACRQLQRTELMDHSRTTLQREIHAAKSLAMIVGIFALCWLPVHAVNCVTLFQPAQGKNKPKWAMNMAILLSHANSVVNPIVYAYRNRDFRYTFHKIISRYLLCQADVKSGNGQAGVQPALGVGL

[1] = biological target: Adenosine receptors; A1 & A3 (Homo sapiens) (UniProt P30542+P0DMS8); test: Selectivity ratio of Ki for displacement of [3H]CCPA from human adenosine A1 receptor expressed in CHO cells to Ki for displacement of [3H]HEMADO from human adenosine A3 receptor expressed in CHO cells; format: cell-based
Adenosine receptor A3 = biological target: T2, Adenosine receptor A3 (Homo sapiens, UniProt P0DMS8); test: Displacement of [3H]HEMADO from human adenosine A3 receptor expressed in CHO cells after 3 hrs by scintillation counting method; format: cell-based
T2 sequence (P0DMS8 whole entry): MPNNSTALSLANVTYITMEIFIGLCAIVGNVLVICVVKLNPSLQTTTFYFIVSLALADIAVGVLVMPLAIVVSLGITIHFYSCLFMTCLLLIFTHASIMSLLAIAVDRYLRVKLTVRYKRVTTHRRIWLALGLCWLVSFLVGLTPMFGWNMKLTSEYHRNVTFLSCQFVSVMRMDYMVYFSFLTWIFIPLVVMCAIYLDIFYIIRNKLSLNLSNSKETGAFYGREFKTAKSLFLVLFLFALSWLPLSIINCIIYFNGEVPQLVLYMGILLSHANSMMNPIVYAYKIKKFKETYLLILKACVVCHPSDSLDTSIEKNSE

Adenosine receptor A1 = biological target: T3, Adenosine receptor A1 (Homo sapiens, UniProt P30542); test: Displacement of [3H]CCPA from human adenosine A1 receptor expressed in CHO cells after 3 hrs by scintillation counting method; format: cell-based
T3 sequence (P30542 whole entry): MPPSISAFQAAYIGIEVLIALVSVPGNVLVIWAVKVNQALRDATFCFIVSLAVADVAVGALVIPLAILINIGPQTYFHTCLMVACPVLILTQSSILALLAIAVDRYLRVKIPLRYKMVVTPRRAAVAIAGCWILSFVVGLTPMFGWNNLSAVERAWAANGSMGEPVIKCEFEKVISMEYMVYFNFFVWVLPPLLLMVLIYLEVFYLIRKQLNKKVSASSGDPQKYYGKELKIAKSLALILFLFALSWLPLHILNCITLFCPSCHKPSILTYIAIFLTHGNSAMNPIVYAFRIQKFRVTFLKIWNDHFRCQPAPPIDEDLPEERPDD

Adenosine receptor A2a [2] = biological target: T4, Adenosine receptor A2a (Homo sapiens, UniProt P29274); test: Displacement of [3H]NECA from human adenosine A2A receptor expressed in CHO cells after 3 hrs by scintillation counting method; format: cell-based
T4 sequence (P29274 whole entry): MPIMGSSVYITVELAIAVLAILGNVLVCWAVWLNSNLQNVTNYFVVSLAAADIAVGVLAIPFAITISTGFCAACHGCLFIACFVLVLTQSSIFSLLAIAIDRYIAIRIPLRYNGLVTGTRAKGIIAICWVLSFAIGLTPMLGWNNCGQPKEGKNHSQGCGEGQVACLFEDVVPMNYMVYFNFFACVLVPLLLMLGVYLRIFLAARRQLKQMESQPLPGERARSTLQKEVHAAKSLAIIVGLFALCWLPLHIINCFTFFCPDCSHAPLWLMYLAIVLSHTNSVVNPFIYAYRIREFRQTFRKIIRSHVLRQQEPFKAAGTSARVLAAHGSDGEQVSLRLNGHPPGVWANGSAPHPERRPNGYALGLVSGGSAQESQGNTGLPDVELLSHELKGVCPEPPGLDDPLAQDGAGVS

Homo sapiens [3] = species on record: Homo sapiens; test: Selectivity ratio of Ki for [3H]NECA from human adenosine A2A receptor expressed in CHO cells to Ki for displacement of [3H]HEMADO from human adenosine A3 receptor expressed in CHO cells; format: cell-based
Homo sapiens [4] = species on record: Homo sapiens; test: Selectivity ratio of Ki for displacement of [3H]HEMADO from human adenosine A3 receptor expressed in CHO cells to Ki for displacement of [3H]NECA from human adenosine A2A receptor expressed in CHO cells; format: cell-based
Homo sapiens [5] = species on record: Homo sapiens; test: Selectivity ratio of Ki for displacement of [3H]CCPA from human adenosine A1 receptor expressed in CHO cells to Ki for displacement of [3H]NECA from human adenosine A2A receptor expressed in CHO cells; format: cell-based
Adenosine receptor A2a [6] = biological target: T4, Adenosine receptor A2a; test: Antagonist activity at human adenosine A2A receptor expressed in CHO cells assessed as inhibition of NECA-induced increase in cAMP accumulation preincubated for 10 mins followed by NECA addition by GloSensor cAMP assay; format: functional, cell-based

Compound | IC50 (Adenosine receptor A2b) | Ratio Ki [1] | Ki (Adenosine receptor A3) | Ki (Adenosine receptor A1) | Ki (Adenosine receptor A2a [2]) | Ratio Ki (Homo sapiens [3]) | Ratio Ki (Homo sapiens [4]) | Ratio Ki (Homo sapiens [5]) | IC50 (Adenosine receptor A2a [6])
O=C(Nc1nc(-c2ccccc2)nc2sc(-c3ccccc3)nc12)c1ccccc1 | > 30 µM | 1.2 | 1200 nM | 1470 nM | 104 nM | 0.08 |  |  | 
Cc1ccc(-c2nc(N)c3nc(-c4ccco4)sc3n2)o1 | > 30 µM |  | 13.8 nM | 45.9 nM | 2.36 nM |  | 5.8 | 19.4 | 
Cc1nc(NC(=O)c2ccccc2)c2nc(-c3ccccc3)sc2n1 | > 30 µM | 1.3 | 691 nM | 935 nM | 1950 nM | 2.8 |  |  | 
Cc1ccc(-c2nc(N)c3nc(-c4ccccc4)sc3n2)o1 | > 30 µM |  | 24.9 nM | 28.9 nM | 22.4 nM |  | 1.1 | 1.3 | 
Nc1nc(-c2ccccc2)nc2sc(-c3ccccc3)nc12 | > 30 µM | 1.76 | 84 nM | 148 nM | 19 nM | 0.22 | 4.4 | 7.8 | 
Nc1nc(-c2cccc(CO)c2)nc2sc(-c3ccco3)nc12 | > 30 µM |  | 0.9 nM | 28 nM | 2.1 nM |  | 0.4 | 13 | 
Cc1nc(N)c2nc(-c3ccccc3)sc2n1 | > 30 µM | 0.01 | 2660 nM | 34 nM | 248 nM | 0.09 | 10.7 | 0.14 | 
N#Cc1cccc(-c2nc(N)c3nc(-c4ccco4)sc3n2)c1 | > 30 µM |  | 61.5 nM | 103 nM | 7.7 nM |  | 8 | 13.3 | 
Nc1nc(-c2ccco2)nc2sc(-c3ccco3)nc12 | > 30 µM |  | 99 nM | 69 nM | 3.4 nM |  | 29.1 | 20.3 | 301 nM
O=C(Nc1nc(-c2ccccc2)nc2sc(-c3ccco3)nc12)c1ccccc1 | > 30 µM | > 900 | 32 nM | > 30000 nM | 1140 nM | 35.7 |  |  | 
Nc1nc(-c2ccc(CO)cc2)nc2sc(-c3ccccc3)nc12 | > 30 µM |  | 8.2 nM | 82 nM | 82 nM |  | 0.1 | 1 | 
Nc1nc(-c2cccc(O)c2)nc2sc(-c3ccco3)nc12 | > 30 µM |  | 15.7 nM | 51 nM | 1.64 nM |  | 9.6 | 31.1 | 764 nM
O=C(Nc1nc(-c2ccccc2)nc2sc(-c3ccccc3)nc12)c1ccco1 | > 30 µM | 47.4 | 48 nM | 2280 nM | 3980 nM | 83 |  |  | 
Nc1nc(-c2cccc(O)c2)nc2sc(-c3ccccc3)nc12 | > 30 µM |  | 190 nM | 58.5 nM | 5 nM |  | 38 | 11.7 | 627 nM
COc1ccc(C(=O)Nc2nc(C)nc3sc(-c4ccccc4)nc23)cc1 | > 30 µM | 16 | 91 nM | 1460 nM | > 30000 nM | > 300 |  |  | 
O=C(Nc1nc(-c2ccccc2)nc2sc(-c3ccco3)nc12)c1ccco1 | > 30 µM | 66.2 | 4 nM | 265 nM | 428 nM | 107 |  |  | 
Nc1nc(-c2ccco2)nc2sc(-c3ccccc3)nc12 | > 30 µM |  | 2.8 nM | 67 nM | 1.7 nM |  | 1.6 | 39.4 | 163 nM
COc1ccc(-c2nc(N)c3nc(-c4ccco4)sc3n2)cc1 | > 30 µM |  | 4.66 nM | 47.7 nM | 11.2 nM |  | 0.4 | 4.2 | 
COc1cccc(-c2nc(N)c3nc(-c4ccccc4)sc3n2)c1 | > 30 µM |  | 35.6 nM | 176 nM | 110 nM |  | 0.3 | 1.6 | 
N#Cc1cccc(-c2nc(N)c3nc(-c4ccccc4)sc3n2)c1 | > 30 µM |  | 247 nM | 594 nM | 33.6 nM |  | 7.3 | 17.7 | 
Cc1nc(NC(=O)c2ccc(Cl)cc2)c2nc(-c3ccccc3)sc2n1 | > 30 µM |  | > 30000 nM | > 30000 nM | > 30000 nM |  |  |  | 
COc1cccc(-c2nc(N)c3nc(-c4ccco4)sc3n2)c1 | > 30 µM |  | 4.9 nM | 62.3 nM | 1.9 nM |  | 2.6 | 32.8 | 
Nc1nc(-c2ccc(CO)cc2)nc2sc(-c3ccco3)nc12 | > 30 µM |  | 3.58 nM | 77.7 nM | 7.7 nM |  | 0.5 | 10.1 | 
Nc1nc(-c2cccc(CO)c2)nc2sc(-c3ccccc3)nc12 | > 30 µM |  | 3.7 nM | 32 nM | 53 nM |  | 0.07 | 0.6 | 
COc1ccc(-c2nc(N)c3nc(-c4ccccc4)sc3n2)cc1 | > 30 µM |  | 46.7 nM | 225 nM | 115 nM |  | 0.4 | 1.9 | 
Nc1nc(-c2ccccc2)nc2sc(-c3ccco3)nc12 | > 30 µM | 2.2 | 15 nM | 33 nM | 3 nM | 0.2 | 5 | 11 | 
